Experimental findings from ChEMBL document CHEMBL1201862, “PubChem BioAssay data set” (2004) are described below.

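In this assay, cells in 96-well plates receive the compound at five concentrations for 48 hours. Endpoints are linearly interpolated between the surrounding concentrations. GI50 = concentration required for 50% inhibition of growth.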 Calls of active or inactive are those of the source. Cut-off read from the data, not from the text of the source: active = GI50 up to about 1.1 µM and inactive = higher. Where only a bound is given, the exact number is not on record here.

Test systems include MDA-N; SNB-75; SN12C; UACC-62; A498; ACHN; OVCAR-4; HCC 2998; K562; CAKI-1; RXF 393; UACC-257; HL-60; HT-29; SW-620; OVCAR-5; OVCAR-8; SR; NCI-H23.
Holding throughout (test): NCI anticancer screen, dose series, 48 h

As to `O=C1OC[C@@H]2[C@@H](O)CCCCCN12`, the GI50 in the experiment on MDA-N, in the experiment on SNB-75, in the experiment with SN12C, in the experiment on UACC-62, with A498 and with ACHN was > 100 µM (inactive) each time. Also, the GI50 in the experiment with OVCAR-4, with HCC 2998, in the experiment with K562, in the experiment on CAKI-1, in the experiment on RXF 393 and in the experiment on UACC-257 was > 100 µM (inactive) throughout. The GI50 in the experiment on HL-60, in the experiment on HT-29, with SW-620, in the experiment on OVCAR-5, in the experiment with OVCAR-8 and with SR was > 100 µM (inactive) each time.

For the compound `O=C1N=C(c2ccccc2)OC1C(=O)c1ccccc1` (stereo not given), the GI50 in the experiment with MDA-N, with SNB-75, in the experiment on SN12C, in the experiment on UACC-62, in the experiment with A498 and in the experiment with ACHN was > 100 µM (inactive) each time. The GI50 in the experiment with OVCAR-4, in the experiment with HCC 2998, with K562, with CAKI-1, with RXF 393 and in the experiment with UACC-257 was > 100 µM (inactive) throughout. Besides, the GI50 in the experiment on HL-60, in the experiment on HT-29, with SW-620, in the experiment on OVCAR-5, with NCI-H23 and with OVCAR-8 was > 100 µM (inactive) throughout. Besides, the GI50 in the experiment with SR is > 100 µM (inactive).

On to `Cc1ccc(NC(=O)CC(=O)n2nc(C)c(/N=N/c3cccc(C)c3)c2C)cc1`, for which the GI50 is > 100 µM (inactive) in the experiment with MDA-N; 18.1 µM (inactive) with SNB-75; > 100 µM (inactive) in the experiment on SN12C; > 100 µM (inactive) in the experiment on UACC-62; > 100 µM (inactive) in the experiment with A498; > 100 µM (inactive) with ACHN. Moreover, the GI50 was > 100 µM (inactive) in the experiment on OVCAR-4; > 100 µM (inactive) in the experiment on HCC 2998; > 100 µM (inactive) with CAKI-1; 67.3 µM (inactive) with RXF 393; > 100 µM (inactive) with UACC-257; 38 µM (inactive) in the experiment with HL-60. Further, the GI50 in the experiment with HT-29 is > 100 µM (inactive); with SW-620, > 100 µM (inactive); in the experiment with OVCAR-5, > 100 µM (inactive); in the experiment on NCI-H23 it was > 100 µM (inactive); in the experiment with OVCAR-8 it was > 100 µM (inactive); in the experiment on SR, 61.7 µM (inactive).

As to `Oc1c(O)c(Cc2ccccc2)c(Cc2ccccc2)c(Cc2ccccc2)c1Cc1ccccc1`, the GI50 in the experiment with MDA-N, in the experiment on SNB-75, in the experiment on SN12C, with UACC-62, with A498 and with ACHN was > 10 µM (inactive) throughout. Also, the GI50 with OVCAR-4, with HCC 2998, in the experiment with K562, with CAKI-1, with RXF 393 and in the experiment with UACC-257 was > 10 µM (inactive) each time. In addition, the GI50 with HL-60, with HT-29, in the experiment with SW-620, in the experiment on OVCAR-5, with NCI-H23 and in the experiment with OVCAR-8 was > 10 µM (inactive) throughout. The GI50 in the experiment with SR is > 10 µM (inactive).

In the case of `CCC[N+](C)(C)CCCNC(=O)c1c(O)c2ccccc2[nH]c1=O`, the GI50 with MDA-N, in the experiment with SNB-75, with SN12C, in the experiment on UACC-62, in the experiment on A498 and in the experiment with ACHN was > 100 µM (inactive) each time. The GI50 in the experiment on OVCAR-4, with HCC 2998, in the experiment with K562, with CAKI-1, in the experiment with RXF 393 and with UACC-257 was > 100 µM (inactive) each time. Further, the GI50 in the experiment on HL-60, in the experiment on HT-29, with SW-620, in the experiment with OVCAR-5, in the experiment with NCI-H23 and with OVCAR-8 was > 100 µM (inactive) in each case. In addition, in the experiment with SR, the GI50 was > 100 µM (inactive).

For `CC(C)(C)OC(=O)CN1CCNCCN(CC(=O)OC(C)(C)C)CCNCC1`, the GI50 in the experiment with MDA-N was 65.6 µM (inactive); in the experiment with SNB-75, > 100 µM (inactive); in the experiment with SN12C it was > 100 µM (inactive); with UACC-62, > 100 µM (inactive); with A498, > 100 µM (inactive); in the experiment with ACHN, > 100 µM (inactive). The GI50 with OVCAR-4 was > 100 µM (inactive); with HCC 2998 it was > 100 µM (inactive); with K562, 47 µM (inactive); with CAKI-1, > 100 µM (inactive); with RXF 393 it was > 100 µM (inactive); in the experiment with UACC-257, > 100 µM (inactive). In addition, the GI50 was 36.2 µM (inactive) in the experiment on HL-60; 33.3 µM (inactive) with HT-29; > 100 µM (inactive) with SW-620; > 100 µM (inactive) in the experiment with OVCAR-5; > 100 µM (inactive) with OVCAR-8; 26.9 µM (inactive) with SR.

In the case of `CN1CCC/C1=N\C#N`, the GI50 in the experiment with MDA-N, with SNB-75, with SN12C, in the experiment with UACC-62, with A498 and in the experiment with ACHN was > 100 µM (inactive) each time. Further, the GI50 in the experiment with OVCAR-4, in the experiment on HCC 2998, in the experiment on K562, in the experiment on CAKI-1, in the experiment on RXF 393 and in the experiment on HL-60 was > 100 µM (inactive) each time. For the same compound, the GI50 in the experiment with HT-29, in the experiment with SW-620, with OVCAR-5, with NCI-H23, with OVCAR-8 and with SR was > 100 µM (inactive) throughout.

In the case of `CNC(=O)/C=C/C1=CN2C(=O)c3ccc(C)c(O)c3NC(OC)C2C1` (stereo not given), the GI50 with MDA-N is < 0.0127 µM (active); in the experiment on SNB-75, 0.0151 µM (active); in the experiment on SN12C it was < 0.01 µM (active); in the experiment on UACC-62, < 0.0124 µM (active); in the experiment with A498, 0.0533 µM (active); with ACHN, 0.0142 µM (active). Besides, the GI50 in the experiment with OVCAR-4 was < 0.0132 µM (active); with HCC 2998, < 0.0126 µM (active); with CAKI-1, < 0.0166 µM (active); in the experiment on RXF 393, < 0.01 µM (active); in the experiment with UACC-257 it was < 0.013 µM (active); in the experiment on HL-60, 0.0298 µM (active). Moreover, the GI50 is < 0.0143 µM (active) in the experiment on HT-29; < 0.0164 µM (active) with SW-620; 0.0244 µM (active) in the experiment with OVCAR-5; < 0.0134 µM (active) in the experiment with NCI-H23; < 0.0141 µM (active) in the experiment on OVCAR-8; < 0.0156 µM (active) with SR.

Regarding `C[C@@H](Br)[C@@H]1CC[C@H]2c3[nH]c4ccccc4c3CCN2C1`, the GI50 in the experiment on MDA-N is 19.4 µM (inactive); in the experiment on SNB-75 it was 18.5 µM (inactive); in the experiment on UACC-62, 14.5 µM (inactive); in the experiment on A498 it was 31.2 µM (inactive); in the experiment on ACHN it was 33.8 µM (inactive); with OVCAR-4, 28 µM (inactive). Moreover, the GI50 with HCC 2998 was 16 µM (inactive); with K562 it was 15.5 µM (inactive); in the experiment with CAKI-1, 16.6 µM (inactive); in the experiment with RXF 393, 20.4 µM (inactive); in the experiment with UACC-257, 27.4 µM (inactive); with HL-60, 20 µM (inactive). Moreover, the GI50 is 25 µM (inactive) with HT-29; 21.8 µM (inactive) in the experiment on SW-620; 34.4 µM (inactive) in the experiment with OVCAR-5; 20.5 µM (inactive) in the experiment with NCI-H23; 26.9 µM (inactive) in the experiment on OVCAR-8; 16.5 µM (inactive) in the experiment on SR.

Consider `CC(C)(C)OC(=O)NC(Cc1ccc(O)cn1)C(N)=O` (stereo not given), for which the GI50 in the experiment with MDA-N, in the experiment with SNB-75, with SN12C, with A498, with ACHN and in the experiment with OVCAR-4 was > 100 µM (inactive) each time. Moreover, the GI50 in the experiment on HCC 2998, in the experiment on CAKI-1, in the experiment on RXF 393, in the experiment with UACC-257, with HL-60 and with HT-29 was > 100 µM (inactive) in each case. In addition, the GI50 in the experiment with SW-620, with OVCAR-5, with NCI-H23, in the experiment with OVCAR-8 and in the experiment with SR was > 100 µM (inactive) in each case.

Regarding `CC(C)C1OC(=O)C=C1Sc1ccccc1` (stereo not given), the GI50 in the experiment on MDA-N, with SNB-75, in the experiment on SN12C, in the experiment with UACC-62, with A498 and with ACHN was > 100 µM (inactive) each time. Moreover, the GI50 with OVCAR-4, with HCC 2998, in the experiment with K562, in the experiment with CAKI-1, in the experiment with RXF 393 and in the experiment on UACC-257 was > 100 µM (inactive) each time. The GI50 in the experiment with HL-60, with HT-29, in the experiment with SW-620, with OVCAR-5, in the experiment with OVCAR-8 and with SR was > 100 µM (inactive) in each case.
